Results: the NIST ThermoML archive (doi:10.1021/acs.jced.7b00221)

Assay: xn = mol fraction of the nth substance listed
Settings: 100 kPa, Liquid, Cone and plate viscometry

CCCCCCCCCCCCCC[P+](CCCCCC)(CCCCCC)CCCCCC.N#Cc1ccc[n-]1 [trihexyl(tetradecyl)phosphonium 2-cyanopyrrolide] + CCCCCC[n+]1ccn(C)c1.O=S(=O)([N-]S(=O)(=O)C(F)(F)F)C(F)(F)F
viscosity [mPa·s]
Settings	278.15 K	283.15 K	288.15 K	293.15 K	298.15 K	303.15 K	308.15 K	313.15 K	318.15 K	323.15 K
x1 = 0.1	337	240	176	132	101	80	64	52	–	–
x1 = 0.2	520	363	259	190	144	111	88	71	58	–
x1 = 0.3	662	455	319	229	170	129	100	79	64	52
x1 = 0.4	900	608	420	298	217	162	125	97	78	63
x1 = 0.496	1216	815	558	392	284	210	160	123	98	79
x1 = 0.6	1407	938	638	445	319	236	177	136	107	85
x1 = 0.698	1684	1117	755	525	376	275	207	158	124	99
x1 = 0.8	1749	1160	785	546	391	286	214	163	128	102
x1 = 0.898	1844	1223	830	578	414	303	228	173	135	108
x1 = 1	1764	1179	804	563	404	297	223	170	133	106

CCCCCCCCCCCCCC[P+](CCCCCC)(CCCCCC)CCCCCC.N#Cc1ccc[n-]1 [trihexyl(tetradecyl)phosphonium 2-cyanopyrrolide] + CCCCCCn1cc[n+](C)c1C.O=S(=O)([N-]S(=O)(=O)C(F)(F)F)C(F)(F)F
viscosity [mPa·s]
Settings	278.15 K	283.15 K	288.15 K	293.15 K	298.15 K	303.15 K	308.15 K	313.15 K	318.15 K	323.15 K
x1 = 0.1	701	472	328	234	173	131	102	81	–	–
x1 = 0.201	895	598	411	290	212	159	122	96	77	63
x1 = 0.3	1056	699	474	332	240	178	136	105	83	67
x1 = 0.399	1356	897	607	422	304	224	169	130	103	82
x1 = 0.5	1594	1048	705	488	350	257	193	148	116	93
x1 = 0.601	1658	1093	734	507	361	264	197	151	117	94
x1 = 0.699	1745	1141	764	527	375	273	204	155	120	96
x1 = 0.799	1868	1221	820	566	403	294	219	167	130	103
x1 = 0.902	1930	1279	867	602	430	315	237	180	141	112
x1 = 1	1764	1179	804	563	404	297	223	170	133	106
